Values quoted from earlier work, collected in patent publication US20030216458A1, “Combination therapy for the treatment of migraine” (priority 1999, published 2003).

Conditions: anaesthetized dog

CNS(=O)(=O)Cc1ccc2[nH]cc(CCN(C)C)c2c1 [Sumatriptan]
effect on carotid vascular resistance: selective increase in carotid vascular resistance
